The results in this text go back to paper PMC12794186, “Covalent Alkynylpyridopyrimidinones Targeting Cysteine 775 of the Epidermal Growth Factor Receptor Overcome Resistance to Current Therapies” (Journal of Medicinal Chemistry, 2025).

Like-named read-outs stand apart in the source and are kept apart here.

One assay has as its system FLT3. As to the kind of experiment: Kinase selectivity panel. It is filed as binding. The note with it: 1.0 µM.
The target in the next assay is T1, wild-type EGFR (WT-EGFR) (Homo sapiens, UniProt P00533).
T1 construct: made in house; host or cells: SF9 insect cells (MultiBac)
T1 sequence (P00533 696-1022 limits assumed): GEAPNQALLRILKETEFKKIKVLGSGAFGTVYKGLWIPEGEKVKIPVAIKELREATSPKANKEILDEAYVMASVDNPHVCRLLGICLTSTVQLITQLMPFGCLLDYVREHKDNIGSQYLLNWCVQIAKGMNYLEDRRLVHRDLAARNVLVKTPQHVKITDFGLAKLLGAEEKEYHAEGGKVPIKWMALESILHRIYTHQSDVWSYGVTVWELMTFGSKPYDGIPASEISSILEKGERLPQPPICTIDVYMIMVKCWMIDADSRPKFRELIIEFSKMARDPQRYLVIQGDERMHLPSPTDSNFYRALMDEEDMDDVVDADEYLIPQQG
As to the kind of experiment: TR-FRET fluorescent probe displacement assay. It is filed as binding. The note with it: TR-FRET, n > 3. The protocol:
Compounds (dissolved to 100 mM in DMSO) were dispensed into black low volume 384 well assay plates (Corning) over a final concentration range of 100,000, 30,000, 10,000, 3000, 1000, 300, 100, 30, 10, and 3 nM using an Echo 550 (Labcyte). Positive control compound and DMSO as a negative control were dispensed into the first and last well, respectively. Each well was backfilled with DMSO to a final volume of 200 nL, resulting in final assay DMSO concentrations of 1%. […] The data were analyzed using Graphpad Prism/Dotmatics Studies Software. Assays conducted in technical replicate and repeated as a biological duplicate.
(Time-resolved FRET reads energy transfer from a long-lived donor to a nearby acceptor.)

Assay [1] relates to pERK1/2 phosphorylation in H1975 (L858R, T790M) cells. As to the kind of experiment: Western blot of ERK1/2 phosphorylation. The assay is classed as cell-based. The note with it: H1975, 4 h exposure. The protocol:
Cells, seeded on the previous day, were incubated with test compound at the indicated concentrations or DMSO (0.1%) for 4 h. Cells were lysed in Phosphosafe extraction buffer (Merck, Cat. No. 71296) combined with cOmplete Protease Inhibitor Cocktail (Merck, Cat. No. 4693116001) prepared as per the manufacturer’s instructions. Protein concentrations were determined using BCA Protein Assay Kit (Thermo Scientific, Cat. No. 23227). Preparation of lysates and Western blotting was performed twice as independent experiments.
Samples were prepared by diluting lysates in PBS to the desired concentration and before adding 4X XT sample buffer. Samples were then denatured at 98 °C for 5 min and then centrifuged to remove the residue. […] The quality of transfer was assessed using Ponceau S Stain (Sigma-Aldrich Cat. No. p7170).
Primary antibodies raised to EGFR (CST Cat. No. 4267), phospho-EGFR (CST Cat. No. 3777), phospho-p44/42 MAPK(ERK1/2) (CST Cat. No. 9101S) and p44/42 MAPK (CST Cat. No. 9102S) were diluted (1:1000) in 5% BSA w/v. Loading control antibodies were prepared in 5% milk w/v with 1× TBS/T (0.1 v/v) solution at a determined optimum concentration.
Proteins were detected using Clarity ECL substrate (Bio-Rad) and imaged using a Licor Odyssey FC.
(A western blot detects proteins with antibodies after separation by electrophoresis.)

In the case of `C#Cc1cc(=O)n(-c2ccccc2)c2nc(Nc3ccc(N(C)CCN(C)C)cc3)ncc12` [Compound 7, 2-((4-((2-(Dimethylamino)ethyl)(methyl)amino)phenyl)amino)-5-ethynyl-8-phenylpyrido[2,3-d]pyrimidin-7(8H)-one], the “Mean (Percent Control)” value with FLT3 is listed as 15 Percent Control. In addition, the IC50 on wild-type EGFR (WT-EGFR) (read-out: WT-EGFR IC50) and on wild-type EGFR (WT-EGFR) (read-out: WT-EGFR pIC50 ± std dev (converted)) was 0.2 µM in each case. Besides, the “reduction in ERK1/2 phosphorylation (Western blot)” value in assay [1] is “concomitant reduction in ERK1/2 phosphorylation”.
